This is an account of results in paper PMC3770654, “Gastric Antimicrobial Peptides Fail to Eradicate Helicobacter pylori Infection Due to Selective Induction and Resistance” (PLoS ONE, 2013).

Like-named read-outs stand apart in the source and are kept apart here. No end group written: not given here.

In test [1] the test system is H. pylori KaE1, DSM 9691, DSM 10242 and DSM 21031. The test can be described thus: Radial diffusion assay, four H. pylori strains. In kind it is cell-based. Conditions: 20 µg peptide per well, 3 days, 37 °C; for zones of inhibition in radial diffusion assay: all four Helicobacter strains, microaerophilic. On the procedure: (§1) Additionally to determine inhibition of bacterial growth we performed radial diffusion assays with a modified protocol of the procedure from Robert Lehrer et al.. Briefly, H. pylori was grown on Columbia blood agar (BD, Sparks, USA), suspended in Brain Heart Infusion diluted 1:5 with aqua dest. and plated on an agar containing 20% brain heart infusion with 5% fetal calf serum. Wells with 3 mm diameter were punched into the agar and peptides were applied equivalent to the flow cytometric assay in a concentration of 20 µg per well. The agar plates were incubated for 3 days at 37 °C in a microaerophilic atmosphere with CampyGen.

Test [2] relates to H. pylori KaE. The experiment in a line: Plating on Columbia blood agar with CFU counting. In kind it is cell-based. Conditions: peptide 20 µg/ml, means of two independent experiments, control 1.42 x 10^6. How it is done:
(§2) H. pylori strains were cultured on Columbia blood agar at 37 C° for 2 days in a microaerophilic atmosphere with CampyGen (Oxoid, Hampshire, UK). Subsequently the bacteria were suspended in Schaedler Broth (BD, Sparks, USA) diluted 1:6 with aqua dest. for incubation with antimicrobial peptides.
(§3) Bacterial viability after incubation with antimicrobial peptides or biopsy extracts was analyzed with the membrane potential sensitive dye DiBAC4(3) (bis-(1,3-dibutylbarbituric acid) trimethine oxonol) (Invitrogen, Carlsbad, CA, USA) as described previously. Briefly, 1.5x10^6 mid-logarithmic-phase bacteria/ml of H. pylori or E. coli in Schaedler Broth 1:6 were incubated with 20 µg/ml HBD1-4 (Peptide Institute, Osaka, Japan), elafin (Proteo Biotech, Kiel, Germany for FACS analysis and RDA and elafin from Peptide Institute, Osaka for CFU determination), with LL37 (Innovagen, Lund, Sweden) or with 10 µg total protein of antrum biopsy extracts at 37°C. After 90 minutes 1 µg/ml DiBAC4(3) was added to the suspensions and further incubated for 10 minutes. Then, the suspensions were centrifuged with 4500 x g for 10 minutes, pellets resuspended in 300 µl PBS and bacterial fluorescence was analyzed by a FACSCalibur^TM (BD, Sparks, USA), using Cell Quest software (BD, Sparks, USA). In each sample 10000 bacterial events were analyzed for green fluorescence and the antimicrobial activity was determined as percentage of depolarized, fluorescent bacteria. Inhibition of bacterial growth was tested by plating aliquots on Columbia blood agar and incubating at 37 C° for 2 days in a microaerophilic atmosphere with CampyGen (Oxoid, Hampshire, UK). Then colony forming units (CFU) were counted.

Test [3] relates to H. pylori DSM 10242. The experiment in a line: Plating on Columbia blood agar with CFU counting. In kind it is cell-based. Conditions: peptide 20 µg/ml, means of two independent experiments, control 6.10 x 10^5. How it is done:
as §2, §3

Test [4] deals with H. pylori DSM 21031. The experiment in a line: Plating on Columbia blood agar with CFU counting. The format is cell-based. Conditions: peptide 20 µg/ml, means of two independent experiments, control 7.45 x 10^5. On the procedure: as §2, §3
Test [5] has as its system H. pylori DMS 9691. The experiment in a line: Plating on Columbia blood agar with CFU counting. The format is cell-based. Conditions: peptide 20 µg/ml, means of two independent experiments, control 8.85 x 10^5. On the procedure: as §2, §3
For test [6], the system named is H. pylori. Conditions: cited from earlier work; for growth inhibition: ref 19 Kawauchi et al. An excerpt: Previously, Hase et al. had tested two H. pylori strains against the antimicrobials HBD1, HBD2 and LL37 and […], one strain tested was resistant to HBD1, while the second strain was sensitive. […] In the study by Hase et al. […] Th ...
Test [7] concerns E. coli ATCC 25922. The test can be described thus: Flow cytometric viability assay with membrane potential sensitive dye DiBAC4(3). In kind it is cell-based. Conditions: 20 µg/ml peptide, 1.5x10^6 bacteria/ml in Schaedler Broth 1:6, 37°C, 90 minutes, then DiBAC4(3) 10 minutes, 10000 events. How it is done:
(§4) The clinical isolate H. pylori KaE1 and the reference strains H. pylori DSM 9691, DSM 10242 and DSM 21031 were tested for susceptibility towards defensins, LL37 and elafin (amino acid sequences Table S1). The strain H. pylori DSM 10242 is positive for the virulence factors VacA and CagA. As control strain for antimicrobial activity served the sensitive E. coli ATCC 25922.
as §3

Test [8] relates to H. pylori KaE1, DSM 9691, DSM 10242 and DSM 21031. The experiment in a line: Flow cytometric viability assay with DiBAC4(3), four H. pylori strains. In kind it is cell-based. Conditions: all 4 H. pylori strains; 20 µg/ml peptide, Schaedler Broth 1:6, 37°C, 90 minutes, DiBAC4(3). On the procedure:
as §4, §2, §3
A general note: A flow cytometer gives signals particle by particle.

Test [9] concerns H. pylori DSM 10242. The test can be described thus: Flow cytometric viability assay with DiBAC4(3). Conditions: 20 µg/ml peptide, 37°C, 90 minutes. In kind it is cell-based. How it is done: as §4, §2
(§5) Bacterial viability after incubation with antimicrobial peptides or biopsy extracts was analyzed with the membrane potential sensitive dye DiBAC4(3) (bis-(1,3-dibutylbarbituric acid) trimethine oxonol) (Invitrogen, Carlsbad, CA, USA) as described previously. […] Then, the suspensions were centrifuged with 4500 x g for 10 minutes, pellets resuspended in 300 µl PBS and bacterial fluorescence was analyzed by a FACSCalibur^TM (BD, Sparks, USA), using Cell Quest software (BD, Sparks, USA). In each sample 10000 bacterial events were analyzed for green fluorescence and the antimicrobial activity was determined as percentage of depolarized, fluorescent bacteria. […] Then colony forming units (CFU) were counted.

Test [10] has as its system H. pylori KaE1. The test can be described thus: Flow cytometric viability assay with DiBAC4(3). The format is cell-based. Conditions: 20 µg/ml peptide, 37°C, 90 minutes. How it is done: as §4, §2, §5
The test system of test [11] is H. pylori. The test can be described thus: Binding of antimicrobial peptides to bacterial cells (flow cytometry, Streptavidin-PE). Conditions: 20 µg/ml biotinylated LL37 or 20 µg/ml HBD2 with biotinylated HBD2-antibody, 30 minutes. On the procedure:
(§6) To investigate whether HBD2 and LL37 bind to the bacterial cell membrane, we incubated E. coli or H. pylori in Schaedler Broth 1:6 with 20 µg/ml biotinylated LL37 (Innovagen, Lund, Sweden) or 20 µg/ml HBD2 (Peptide Institute, Osaka, Japan) for 30 minutes. After centrifugation a biotinylated HBD2-antibody was added to the in PBS resuspended pellet of the HBD2 samples (Peprotech, Hamburg, Germany). Following washing with PBS, binding of biotinylated LL37 or of the HBD2-antibody was detected with Streptavidin-PE (BD Biosciences, Heidelberg, Germany). Suspensions incubated with HBD2 antibody and Streptavidin served as control. Fluorescence 2 of 10 000 events was measured with the FACSCalibur.

Test [12] deals with E. coli ATCC 25922. The description is as above. Conditions: 20 µg/ml biotinylated LL37 or 20 µg/ml HBD2 with biotinylated HBD2-antibody, 30 minutes. On the procedure: as §6
The test system of test [13] is H. pylori KaE1. The experiment in a line: Transmission electron microscopy of peptide-treated bacteria. The format is cell-based. Conditions: H. pylori KaE1, 1.5x10^8 bacteria, 200 µg peptide/ml, 2 hours. How it is done:
For electron microscopy 1.5x10^8 bacteria were incubated with 200 µg peptide/ml for 2 hours. Subsequently bacteria were fixed with Karnovsky solution, embedded in agarose, coagulated, cut in blocks and fixed once more in Karnovsky. After post fixation and embedding in glycid ether the specimen were cut with an ultra microtome. Sections of 30 nm were rinsed on copper grids and investigated with a Zeiss LIBRA 120 transmission electron microscope.

Test [14] has as its system H. pylori KaE1. The test can be described thus: Radial diffusion assay. In kind it is cell-based. Conditions: 20 µg peptide per well, 3 days, 37 °C. On the procedure: as §1
Test [15] concerns H. pylori DSM 21031. The test can be described thus: Radial diffusion assay. The format is cell-based. Conditions: 20 µg peptide per well, 3 days, 37 °C. On the procedure:
as §1

Consider “Asp - His - Tyr - Asn - Cys - Val - Ser - Ser - Gly - Gly - Gln - Cys - Leu - Tyr - Ser - Ala - Cys - Pro - Ile - Phe - Thr - Lys - Ile - Gln - Gly - Thr - Cys - Tyr - Arg - Gly - Lys - Ala - Lys - Cys - Cys - Lys (disulfide) [HBD1, recombinant constitutive defensin HBD1 (gene name DEFB1), Peptide Institute, Osaka]”, for which, in test [1], the “zones of inhibition in radial diffusion assay” value (from here on “zones of inhibition”) is “no zones of inhibition”. Further, the Colony forming units in test [2] is 1.32 x 10^6 CFU/ml; in [3], 6.85 x 10^5 CFU/ml; in test [4], 7.15 x 10^5 CFU/ml; in test [5], 8.61 x 10^5 CFU/ml. Besides, in test [6] (10^-5 M recombinant HBD1 in hypotonic buffer, ref 21 George et al.), the “eradication (CFU)” value is on record as “absolute eradication”. Also, the “reduction of CFU” value in test [6] (10^-7 M recombinant HBD1 in hypotonic buffer, ref 21 George et al.) is “about 50%”. The depolarized bacteria is listed as 37% in [7] and “less than 5%” in test [8].
Consider “ELDRICGYGTARCRKKCRSQEYRIGRCPNTYACCLRK (disulfide (positions not given here)) [HBD4, recombinant defensin HBD4 (DEFB104A), Peptide Institute, Osaka]”, for which, in test [1], the “zones of inhibition” value was “no zones of inhibition”. The Colony forming units in test [2] was 1.26 x 10^6 CFU/ml; in test [3], 4.95 x 10^5 CFU/ml; in test [4] it was 6.90 x 10^5 CFU/ml; in [5] it was 8.25 x 10^5 CFU/ml. The depolarization level in test [9] was 12%; in [10] it was 8%. In test [7], this substance came in with a depolarized bacteria of 43%.
For “Gly - Ile - Gly - Asp - Pro - Val - Thr - Cys - Leu - Lys - Ser - Gly - Ala - Ile - Cys - His - Pro - Val - Phe - Cys - Pro - Arg - Arg - Tyr - Lys - Gln - Ile - Gly - Thr - Cys - Gly - Leu - Pro - Gly - Thr - Lys - Cys - Cys - Lys - Lys - Pro (disulfide) [HBD2, human beta defensin 2, recombinant inducible defensin HBD2 (DEFB4A), Peptide Institute, Osaka]”, the “growth in radial diffusion assay” value in test [1] (the two other strains (not KaE1, not DSM 21031)) is “not influenced”. Besides, the Colony forming units is 0.89 x 10^6 CFU/ml in [2], 5.92 x 10^5 CFU/ml in test [3], 6.07 x 10^5 CFU/ml in test [4] and 7.90 x 10^5 CFU/ml in test [5]. In addition, the growth inhibition in test [6] (30 µg/ml HBD2) was 70%; in test [6] (50 µg/ml HBD2), “complete inhibition”. In test [6] (ref 20 Hase et al.), the “effect on bacterial viability” value is “no effect on bacterial viability”. Also, the “binding to the bacterial surface” value in test [11] and in [12] was “accumulated on the surface” throughout. The figures for the depolarized bacteria in test [7] and in test [8] were 51% and “less than 5%”, respectively. In addition, in test [13], the “disintegration of bacterial cells (electron microscopy)” value is “much less disintegration”. Besides, the “zones of inhibition” value in [14] and in test [15] was “small inhibition zones” each time.
As to “Gly - Ile - Ile - Asn - Thr - Leu - Gln - Lys - Tyr - Tyr - Cys - Arg - Val - Arg - Gly - Gly - Arg - Cys - Ala - Val - Leu - Ser - Cys - Leu - Pro - Lys - Glu - Glu - Gln - Ile - Gly - Lys - Cys - Ser - Thr - Arg - Gly - Arg - Lys - Cys - Cys - Arg - Arg - Lys - Lys (disulfide) [HBD3, recombinant inducible defensin HBD3 (DEFB103A), Peptide Institute, Osaka]”, in [1], the “zones of inhibition” value was “pronounced zones”. Moreover, the Colony forming units in test [2] is 0.08 x 10^6 CFU/ml; in test [3] it was 1.14 x 10^5 CFU/ml; in test [4], 1.55 x 10^5 CFU/ml; in [5], 0.20 x 10^5 CFU/ml. The “effectiveness against H. pylori among defensins” value in [6] (ref 21 George et al.) was “most effective against H. pylori”. Moreover, the depolarized bacteria is 90% in test [7] and 34-78% in test [8]. The “disintegration of bacterial cells (electron microscopy)” value in test [13] is listed as “more pronounced disintegration”.
As for “Leu - Leu - Gly - Asp - Phe - Phe - Arg - Lys - Ser - Lys - Glu - Lys - Ile - Gly - Lys - Glu - Phe - Lys - Arg - Ile - Val - Gln - Arg - Ile - Lys - Asp - Phe - Leu - Arg - Asn - Leu - Val - Pro - Arg - Thr - Glu - Ser [LL37, amphipathic α-helical cathelicidin LL37 (CAMP), Innovagen, Lund]”, the “zones of inhibition” value in [1] is on record as “pronounced zones”. For the same substance, the Colony forming units is listed as 0.09 x 10^6 CFU/ml in [2], 0.15 x 10^5 CFU/ml in [3], 0.41 x 10^5 CFU/ml in test [4] and 0.35 x 10^5 CFU/ml in test [5]. In addition, the “binding to the bacterial surface” value in test [11] and in test [12] was “accumulated on the surface” throughout. Further, the depolarized bacteria in test [7] is listed as 87%; in [8], 62-85%.
